Experimental data reported in patent US20100076024A1, “Novel Compounds as Serine Protease Inhibitors” (priority 2007, published 2010).

Molecular target: recombinant human DPP-4 (Homo sapiens, UniProt P27487)
Assay: recombinant human DPP-4 fluorogenic substrate cleavage assay
Assay type: biochemical
Conditions: compound 10 uM, substrate (H-Ala-Pro)-2-Rh110 10 μM, 1 hour pre-incubation, room temperature; for inhibition at 10 µM: read-out: % Inhib at 10 uM
Experimental: For compound screening, the assay employed measures the activity of recombinant human DPP-4 to cleave the synthetic fluorogenic substrate (H-Ala-Pro)-2—Rh110. The reaction is run in 384-well plates. Compound solutions in assay buffer are pre-incubated with the human recombinant DPP-4 and the reaction is initiated by the addition of the substrate. The product of the reaction is quantified by measuring the fluorescence intensity using Tecan Ultraplate reader. For each compound concentration tested, the percent of inhibition is calculated.
For the determination of IC50 and/or % of inhibition values, the assay is performed at room temperature in 384-well plates using a TECAN Ultra plate reader. Total assay volume is 30 μl. Test compounds are dissolved in 90% (v/v) DMSO/water and diluted in water containing 0.05% (w/v) CHAPS to 3-times the desired assay concentration. For the assay, 10 μl water/CHAPS (±test compound) are added per well, followed by the addition of 10 μl hDPP4 solution (diluted with 1.5× assay buffer, i.e. 37.5 mM Tris/HCl, pH 7.4, 210 mM NaCl, 15 mM KCl, and 0.05% (w/v) CHAPS). The final assay concentrations are […] for hDPP4 according to the enzyme concentrations determined by the Bradford method. After 1 hour of pre-incubation at room temperature, the reaction is started by the addition of 10 μl substrate solution (substrate dilutes in 1.5× assay buffer, final substrate concentration is 10 μM). The effect of the compound on the enzymatic activity is obtained from the linear progression curves and determined from two readings, the first one taken directly after the addition of substrate (t=0 min) and the second one after 1 hour (t=60 min). The apparent inhibition constant, IC50, is calculated from the plot of percentage of inhibition vs. inhibitor concentration using non-linear regression analysis software (XLfit, Vers. 4.0; ID Business Solution Ltd., Guildford, Surrey, UK).

recombinant human DPP-4, sequence (P27487 whole entry): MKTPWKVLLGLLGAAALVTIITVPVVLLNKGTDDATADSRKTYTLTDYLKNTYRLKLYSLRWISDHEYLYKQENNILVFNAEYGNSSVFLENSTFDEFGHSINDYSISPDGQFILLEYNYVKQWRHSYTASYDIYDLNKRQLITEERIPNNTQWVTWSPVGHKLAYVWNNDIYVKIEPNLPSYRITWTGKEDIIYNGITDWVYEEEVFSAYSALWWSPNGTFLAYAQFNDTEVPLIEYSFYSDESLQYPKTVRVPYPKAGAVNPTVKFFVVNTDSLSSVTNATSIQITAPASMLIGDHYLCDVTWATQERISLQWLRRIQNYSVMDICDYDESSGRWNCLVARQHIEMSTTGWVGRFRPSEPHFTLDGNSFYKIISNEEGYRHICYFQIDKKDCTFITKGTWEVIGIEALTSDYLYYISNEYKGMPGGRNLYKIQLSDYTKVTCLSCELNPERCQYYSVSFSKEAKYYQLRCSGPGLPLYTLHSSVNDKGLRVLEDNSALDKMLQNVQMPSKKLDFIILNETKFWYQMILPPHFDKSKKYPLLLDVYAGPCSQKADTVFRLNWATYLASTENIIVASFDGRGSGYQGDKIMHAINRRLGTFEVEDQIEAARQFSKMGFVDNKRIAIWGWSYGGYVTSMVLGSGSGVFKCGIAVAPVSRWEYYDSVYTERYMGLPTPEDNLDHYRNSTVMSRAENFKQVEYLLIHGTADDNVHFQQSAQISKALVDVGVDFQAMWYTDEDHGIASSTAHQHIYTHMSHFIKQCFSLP

Row | SMILES | inhibition at 10 µM | % Inhib at 10 uM
1 | N[C@@H](CCN1CCC(c2cccc(Cl)c2)C1)Cc1cc(F)c(F)cc1F (stereo partly drawn) [Compound 15, (R)-3-[3-(3-Chloro-phenyl)-pyrrolidin-1-yl]-1-(2,4,5-trifluoro-benzyl)-propylamine] | 99.3% | 
2 | N[C@@H](CCN1CCCC1)Cc1cc(F)c(F)cc1F [Compound 28, (R)-3-Pyrrolidin-1-yl-1-(2,4,5-trifluoro-benzyl)-propylamine] | 99.1% | 
3 | N[C@@H](CCN1CCCCC1)Cc1cc(F)c(F)cc1F [Compound 24, (R)-3-Piperidin-1-yl-1-(2,4,5-trifluoro-benzyl)-propylamine] | 99.3% | 
4 | N[C@@H](CCN1CCCC(c2cccc(F)c2)C1)Cc1cc(F)c(F)cc1F (stereo partly drawn) [Compound 12, (R)-3-[3-(3-Fluoro-phenyl)-piperidin-1-yl]-1-(2,4,5-trifluoro-benzyl)-propylamine] | 99.7% | 
5 | Cc1ccccc1C1CCCN(CC[C@H](N)Cc2cc(F)c(F)cc2F)C1 (stereo partly drawn) [Compound 10, (R)-3-(3-o-Tolyl-piperidin-1-yl)-1-(2,4,5-trifluoro-benzyl)-propylamine] | 99.4% | 
6 | Cc1ccc(C2CCCN(CC[C@H](N)Cc3cc(F)c(F)cc3F)C2)cc1 (stereo partly drawn) [Compound 8, (R)-3-(3-p-Tolyl-piperidin-1-yl)-1-(2,4,5-trifluoro-benzyl)-propylamine] | 99.6% | 
7 | COc1ccc(C2CCN(CC[C@H](N)Cc3cc(F)c(F)cc3F)C2)cc1 (stereo partly drawn) [Compound 17, (R)-3-[3-(4-Methoxy-phenyl)-pyrrolidin-1-yl]-1-(2,4,5-trifluoro-benzyl)-propylamine] | 98.4% | 
8 | Cc1cccc(C2CCCN(CC[C@H](N)Cc3cc(F)c(F)cc3F)C2)c1 (stereo partly drawn) [Compound 9, (R)-3-(3-m-Tolyl-piperidin-1-yl)-1-(2,4,5-trifluoro-benzyl)-propylamine] | 99.7% | 
9 | N[C@@H](CCN1CCC(c2cccc(F)c2)C1)Cc1cc(F)c(F)cc1F (stereo partly drawn) [Compound 22, (R)-3-[3-(3-Fluoro-phenyl)-pyrrolidin-1-yl]-1-(2,4,5-trifluoro-benzyl)-propylamine] | 99.6% | 
10 | N[C@@H](CCN1CCCC(c2ccc(F)cc2)C1)Cc1cc(F)c(F)cc1F (stereo partly drawn) [Compound 11, (R)-3-[3-(4-Fluoro-phenyl)-piperidin-1-yl]-1-(2,4,5-trifluoro-benzyl)-propylamine] | 99.6% | 
11 | CC1CCCN(CC[C@H](N)Cc2cc(F)c(F)cc2F)C1 (stereo partly drawn) [Compound 25, (R)-3-(3-Methyl-piperidin-1-yl)-1-(2,4,5-trifluoro-benzyl)-propylamine] | 98.6% | 
12 | N[C@@H](CCN1CCCC(c2cccc(C(F)(F)F)c2)C1)Cc1cc(F)c(F)cc1F (stereo partly drawn) [Compound 6, (R)-1-(2,4,5-Trifluoro-benzyl)-3-[3-(3-trifluoromethyl-phenyl)-piperidin-1-yl]-propylamine] | 98.9% | 
13 | COCC1CCCN(CC[C@H](N)Cc2cc(F)c(F)cc2F)C1 (stereo partly drawn) [Compound 26, (R)-3-(3-Methoxymethyl-piperidin-1-yl)-1-(2,4,5-trifluoro-benzyl)-propylamine] | 99.5% | 
14 | COc1ccccc1C1CCCN(CC[C@H](N)Cc2cc(F)c(F)cc2F)C1 (stereo partly drawn) [Compound 4, (R)-3-[3-(2-Methoxy-phenyl)-piperidin-1-yl]-1-(2,4,5-trifluoro-benzyl)-propylamine] | 98.9% | 
15 | COc1ccc(C2CCCN(CC[C@H](N)Cc3cc(F)c(F)cc3F)C2)cc1 (stereo partly drawn) [Compound 2, (R)-3-[3-(4-Methoxy-phenyl)-piperidin-1-yl]-1-(2,4,5-trifluoro-benzyl)-propylamine] | 99.5% | 
16 | N[C@@H](CCN1CCC(c2ccccc2)C1)Cc1cc(F)c(F)cc1F (stereo partly drawn) [Compound 14, (R)-3-(3-Phenyl-pyrrolidin-1-yl)-1-(2,4,5-trifluoro-benzyl)-propylamine] | 99.6% | 
17 | N[C@@H](CCN1CCC(c2ccc(F)cc2)C1)Cc1cc(F)c(F)cc1F (stereo partly drawn) [Compound 21, (R)-3-[3-(4-Fluoro-phenyl)-pyrrolidin-1-yl]-1-(2,4,5-trifluoro-benzyl)-propylamine] | 99.6% | 
18 | N[C@@H](CCN1CCCC(c2ccc(C(F)(F)F)cc2)C1)Cc1cc(F)c(F)cc1F (stereo partly drawn) [Compound 5, (R)-1-(2,4,5-Trifluoro-benzyl)-3-[3-(4-trifluoromethyl-phenyl)-piperidin-1-yl]-propylamine] | 99.3% | 
19 | N[C@@H](CCN1CCC(c2ccccc2Cl)C1)Cc1cc(F)c(F)cc1F (stereo partly drawn) [Compound 16, (R)-3-[3-(2-Chloro-phenyl)-pyrrolidin-1-yl]-1-(2,4,5-trifluoro-benzyl)-propylamine] | 99.5% | 
20 | N[C@@H](CCN1CCC(c2ccccc2F)C1)Cc1cc(F)c(F)cc1F (stereo partly drawn) [Compound 23, (R)-3-[3-(2-Fluoro-phenyl)-pyrrolidin-1-yl]-1-(2,4,5-trifluoro-benzyl)-propylamine] | 99.5% | 
21 | N[C@@H](CCN1CCCC(c2ccccc2)C1)Cc1cc(F)c(F)cc1F (stereo partly drawn) [Compound 1, (R)-3-(3-Phenyl-piperidin-1-yl)-1-(2,4,5-trifluoro-benzyl)-propylamine] | 99.9% | 
22 | COc1cccc(C2CCN(CC[C@H](N)Cc3cc(F)c(F)cc3F)C2)c1 (stereo partly drawn) [Compound 18, (R)-3-[3-(3-Methoxy-phenyl)-pyrrolidin-1-yl]-1-(2,4,5-trifluoro-benzyl)-propylamine] | 99.2% | 
23 | COc1ccccc1C1CCN(CC[C@H](N)Cc2cc(F)c(F)cc2F)C1 (stereo partly drawn) [Compound 19, (R)-3-[3-(2-Methoxy-phenyl)-pyrrolidin-1-yl]-1-(2,4,5-trifluoro-benzyl)-propylamine] | 99.2% | 
24 | N[C@@H](CCN1CCC(c2ccc(C(F)(F)F)cc2)C1)Cc1cc(F)c(F)cc1F (stereo partly drawn) [Compound 20, (R)-1-(2,4,5-Trifluoro-benzyl)-3-[3-(4-trifluoromethyl-phenyl)-pyrrolidin-1-yl]-propylamine] | 99.1% | 
25 | N[C@@H](CCN1CCCC(c2ccc3c(c2)OCO3)C1)Cc1cc(F)c(F)cc1F (stereo partly drawn) [Compound 27, (R)-3-(3-Benzo[1,3]dioxol-5-yl-piperidin-1-yl)-1-(2,4,5-trifluoro-benzyl)-propylamine] | 99.7% | 
26 | N[C@@H](CCN1CC[C@H](c2ccc(F)cc2)C1)Cc1cc(F)c(F)cc1F [Compound 29] |  | 99.4%
27 | COc1cccc(C2CCCN(CC[C@H](N)Cc3cc(F)c(F)cc3F)C2)c1 (stereo partly drawn) [Compound 3, (R)-3-[3-(3-Methoxy-phenyl)-piperidin-1-yl]-1-(2,4,5-trifluoro-benzyl)-propylamine] | 97.9% | 
28 | N[C@@H](CCN1CCCC(c2ccccc2C(F)(F)F)C1)Cc1cc(F)c(F)cc1F (stereo partly drawn) [Compound 7, (R)-1-(2,4,5-Trifluoro-benzyl)-3-[3-(2-trifluoromethyl-phenyl)-piperidin-1-yl]-propylamine] | 98.3% | 
